In ChEMBL document CHEMBL5370591, “A Potent and Narrow-Spectrum Antibacterial against Clostridioides difficile Infection” (J Med Chem, 2023):
In brackets after ≈: the same amount, converted by molar mass.

Experiments:
Bacillus licheniformis = experiment: Antibacterial activity against Bacillus licheniformis ATCC 12759 assessed as inhibition of bacterial growth by broth microdilution method; format: functional
Staphylococcus aureus [1] = experiment: Antibacterial activity against Staphylococcus aureus NRS100 assessed as inhibition of bacterial growth by broth microdilution method; format: functional
Enterococcus faecalis [2] = experiment: Antibacterial activity against Enterococcus faecalis ATCC 29212 assessed as inhibition of bacterial growth by broth microdilution method; format: functional
Streptococcus oralis = experiment: Antibacterial activity against Streptococcus oralis ATCC 9811 assessed as inhibition of bacterial growth by broth microdilution method; format: functional
Clostridioides difficile [3] = experiment: Antibacterial activity against Clostridium difficile 23828 assessed as inhibition of bacterial growth by broth microdilution method; format: functional
Staphylococcus aureus [4] = experiment: Antibacterial activity against vancomycin-resistant Staphylococcus aureus clinical isolate 1 assessed as inhibition of bacterial growth by broth microdilution method; format: functional
Enterococcus faecalis [5] = experiment: Antibacterial activity against vancomycin susceptible Enterococcus faecalis 201 assessed as inhibition of bacterial growth by broth microdilution method; format: functional
Clostridioides difficile [6] = experiment: Antibacterial activity against Clostridium difficile NR49310 assessed as inhibition of bacterial growth by broth microdilution method; format: functional
Enterococcus faecium [7] = experiment: Antibacterial activity against Enterococcus faecium NCTC 7171 assessed as inhibition of bacterial growth by broth microdilution method; format: functional
Pseudomonas aeruginosa = experiment: Antibacterial activity against Pseudomonas aeruginosa ATCC27853 assessed as inhibition of bacterial growth by broth microdilution method; format: functional
Clostridioides difficile [8] = experiment: Antibacterial activity against Clostridium difficile NR49294 assessed as inhibition of bacterial growth by broth microdilution method; format: functional
Eubacterium sp. = experiment: Antibacterial activity against Eubacterium sp. HM-178 assessed as inhibition of bacterial growth by broth microdilution method; format: functional
Staphylococcus aureus [9] = experiment: Antibacterial activity against Staphylococcus aureus ATCC 27660 assessed as inhibition of bacterial growth by broth microdilution method; format: functional
[10] = system: Staphylococcus epidermidis; experiment: Antibacterial activity against Staphylococcus epidermidis ATCC 35547 assessed as inhibition of bacterial growth by broth microdilution method; format: functional
Klebsiella pneumoniae = experiment: Antibacterial activity against Klebsiella pneumoniae ATCC700603 assessed as inhibition of bacterial growth by broth microdilution method; format: functional
THP-1 = experiment: Cytotoxicity against human THP-1 cells assessed as increase in LDH release incubate for 24 hrs by trypan-blue staining based analysis; format: functional, cell-based; conditions: THP-1, 24 h
Staphylococcus aureus [11] = experiment: Antibacterial activity against vancomycin-resistant Staphylococcus aureus clinical isolate 2 assessed as inhibition of bacterial growth by broth microdilution method; format: functional
Clostridioides difficile [12] = experiment: Antibacterial activity against Clostridium difficile NR49302 assessed as inhibition of bacterial growth by broth microdilution method; format: functional
Enterococcus faecalis [13] = experiment: Antibacterial activity against vancomycin resistant Enterococcus faecalis 99 assessed as inhibition of bacterial growth by broth microdilution method; format: functional
Bifidobacterium longum = experiment: Antibacterial activity against Bifidobacterium longum HM-846 assessed as inhibition of bacterial growth by broth microdilution method; format: functional
Staphylococcus aureus [14] = experiment: Antibacterial activity against Staphylococcus aureus ATCC 29213 assessed as inhibition of bacterial growth by broth microdilution method; format: functional
Bacillus cereus = experiment: Antibacterial activity against Bacillus cereus ATCC 13061 assessed as inhibition of bacterial growth by broth microdilution method; format: functional
Enterococcus faecium [15] = experiment: Antibacterial activity against vancomycin resistant Enterococcus faecium 106 assessed as inhibition of bacterial growth by broth microdilution method; format: functional
Streptococcus pyogenes = experiment: Antibacterial activity against Streptococcus pyogenes ATCC 49399 assessed as inhibition of bacterial growth by broth microdilution method; format: functional
Staphylococcus aureus [16] = experiment: Antibacterial activity against Staphylococcus aureus NRS120 assessed as inhibition of bacterial growth by broth microdilution method; format: functional
Clostridioides difficile [17] = experiment: Antibacterial activity against Clostridium difficile NR49318 assessed as inhibition of bacterial growth by broth microdilution method; format: functional
Clostridioides difficile [18] = experiment: Antibacterial activity against Clostridium difficile NR49292 assessed as inhibition of bacterial growth by broth microdilution method; format: functional
Staphylococcus aureus [19] = experiment: Antibacterial activity against Staphylococcus aureus NRS119 assessed as inhibition of bacterial growth by broth microdilution method; format: functional
[20] = system: Staphylococcus haemolyticus; experiment: Antibacterial activity against Staphylococcus haemolyticus ATCC 29970 assessed as inhibition of bacterial growth by broth microdilution method; format: functional
Clostridioides difficile [21] = experiment: Antibacterial activity against Clostridium difficile BAA-1870 assessed as inhibition of bacterial growth by broth microdilution method; format: functional
Clostridioides difficile [22] = experiment: Antibacterial activity against Clostridium difficile 24531 assessed as inhibition of bacterial growth by broth microdilution method; format: functional
Enterococcus faecium [23] = experiment: Antibacterial activity against vancomycin susceptible Enterococcus faecium119-39A assessed as inhibition of bacterial growth by broth microdilution method; format: functional; conditions: 119-39A
Bacteroides fragilis = experiment: Antibacterial activity against Bacteroides fragilis HM-709 assessed as inhibition of bacterial growth by broth microdilution method; format: functional
Acinetobacter baumannii = experiment: Antibacterial activity against Acinetobacter baumannii ATCC17961 assessed as inhibition of bacterial growth by broth microdilution method; format: functional
Clostridioides difficile [24] = experiment: Antibacterial activity against Clostridium difficile ATCC 43255 assessed as inhibition of bacterial growth by broth microdilution method; format: functional
Fusobacterium nucleatum = experiment: Antibacterial activity against Fusobacterium nucleatum HM-992 assessed as inhibition of bacterial growth by broth microdilution method; format: functional
Lactobacillus gasseri = experiment: Antibacterial activity against Lactobacillus gasseri HM-644 assessed as inhibition of bacterial growth by broth microdilution method; format: functional
Veillonella = experiment: Antibacterial activity against Veillonella HM-49 assessed as inhibition of bacterial growth by broth microdilution method; format: functional
Clostridioides difficile [25] = experiment: Antibacterial activity against Clostridium difficile NR49305 assessed as inhibition of bacterial growth by broth microdilution method; format: functional
Klebsiella aerogenes = experiment: Antibacterial activity against Klebsiella aerogenes ATCC35029 assessed as inhibition of bacterial growth by broth microdilution method; format: functional
[26] = system: Limosilactobacillus reuteri; experiment: Antibacterial activity against Lactobacillus reuteri HM-102 assessed as inhibition of bacterial growth by broth microdilution method; format: functional
Escherichia coli = experiment: Antibacterial activity against Escherichia coli ATCC25922 assessed as inhibition of bacterial growth by broth microdilution method; format: functional
Clostridioides difficile [27] = experiment: Antibacterial activity against Clostridium difficile 26675 assessed as inhibition of bacterial growth by broth microdilution method; format: functional
Corynebacterium sp. = experiment: Antibacterial activity against Corynebacterium sp. HM-784 assessed as inhibition of bacterial growth by broth microdilution method; format: functional
Clostridioides difficile [28] = experiment: Antibacterial activity against Clostridium difficile BAA-1803 assessed as inhibition of bacterial growth by broth microdilution method; format: functional

Oc1ccc(-c2nc(-c3ccc(OC4CCCC4)cc3)no2)cc1
MIC (Bacillus licheniformis): 4 µg/mL (≈ 12.4 µM)
MIC (Staphylococcus aureus [1]): 1 µg/mL (≈ 3.1 µM)
MIC (Enterococcus faecalis [2]): 4 µg/mL (≈ 12.4 µM)
MIC (Streptococcus oralis): > 128 µg/mL
MIC (Clostridioides difficile [3]): 4 µg/mL (≈ 12.4 µM)
MIC (Staphylococcus aureus [4]): 2 µg/mL (≈ 6.2 µM)
MIC (Enterococcus faecalis [5]): 4 µg/mL (≈ 12.4 µM)
MIC (Clostridioides difficile [6]): 4 µg/mL (≈ 12.4 µM)
MIC (Enterococcus faecium [7]): 4 µg/mL (≈ 12.4 µM)
MIC (Pseudomonas aeruginosa): > 128 µg/mL
MIC (Clostridioides difficile [8]): 2 µg/mL (≈ 6.2 µM)
MIC (Eubacterium sp.): 4 µg/mL (≈ 12.4 µM)
MIC (Staphylococcus aureus [9]): 2 µg/mL (≈ 6.2 µM)
MIC [10]: 2 µg/mL (≈ 6.2 µM)
MIC (Klebsiella pneumoniae): > 128 µg/mL
IC50 (THP-1): 18 µg/mL (≈ 55.8 µM)
MIC (Staphylococcus aureus [11]): 2 µg/mL (≈ 6.2 µM)
MIC (Clostridioides difficile [12]): 2 µg/mL (≈ 6.2 µM)
MIC (Enterococcus faecalis [13]): 4 µg/mL (≈ 12.4 µM)
MIC (Bifidobacterium longum): 1 µg/mL (≈ 3.1 µM)
MIC (Staphylococcus aureus [14]): 2 µg/mL (≈ 6.2 µM)
MIC (Bacillus cereus): 2 µg/mL (≈ 6.2 µM)
MIC (Enterococcus faecium [15]): 2 µg/mL (≈ 6.2 µM)
MIC (Streptococcus pyogenes): > 128 µg/mL
MIC (Staphylococcus aureus [16]): 2 µg/mL (≈ 6.2 µM)
MIC (Clostridioides difficile [17]): 4 µg/mL (≈ 12.4 µM)
MIC (Clostridioides difficile [18]): 2 µg/mL (≈ 6.2 µM)
MIC (Staphylococcus aureus [19]): 1 µg/mL (≈ 3.1 µM)
MIC [20]: 2 µg/mL (≈ 6.2 µM)
MIC (Clostridioides difficile [21]): 2 µg/mL (≈ 6.2 µM)
MIC (Clostridioides difficile [22]): 4 µg/mL (≈ 12.4 µM)
MIC (Enterococcus faecium [23]): 2 µg/mL (≈ 6.2 µM)
MIC (Bacteroides fragilis): 2 µg/mL (≈ 6.2 µM)
MIC (Acinetobacter baumannii): > 128 µg/mL
MIC (Clostridioides difficile [24]): 2 µg/mL (≈ 6.2 µM)
MIC (Fusobacterium nucleatum): 2 µg/mL (≈ 6.2 µM)
MIC (Lactobacillus gasseri): > 128 µg/mL
MIC (Veillonella): > 128 µg/mL
MIC (Clostridioides difficile [25]): 2 µg/mL (≈ 6.2 µM)
MIC (Klebsiella aerogenes): > 128 µg/mL
MIC [26]: > 128 µg/mL
MIC (Escherichia coli): > 128 µg/mL
MIC (Clostridioides difficile [27]): 4 µg/mL (≈ 12.4 µM)

CCc1c(Cl)c(O)c(Cl)c(O)c1C(=O)O[C@H]1[C@H](O)[C@H](OC)[C@H](OC/C2=C\C=C\C[C@H](O)/C(C)=C/[C@H](CC)[C@@H](O[C@@H]3OC(C)(C)[C@@H](OC(=O)C(C)C)[C@H](O)[C@@H]3O)/C(C)=C/C(C)=C/C[C@@H]([C@@H](C)O)OC2=O)O[C@@H]1C [FIDAXOMICIN]
MIC (Streptococcus oralis): 32 µg/mL (≈ 30.2 µM)
MIC (Clostridioides difficile [3]): > 8 µg/mL
MIC (Staphylococcus aureus [4]): 64 µg/mL (≈ 60.5 µM)
MIC (Corynebacterium sp.): < 0.06 µg/mL
MIC (Clostridioides difficile [6]): ≤ 0.01 µg/mL
MIC (Pseudomonas aeruginosa): > 128 µg/mL
MIC (Clostridioides difficile [28]): 1 µg/mL (≈ 0.945 µM)
MIC (Clostridioides difficile [8]): 0.01 µg/mL (≈ 0.00945 µM)
MIC (Eubacterium sp.): 16 µg/mL (≈ 15.1 µM)
MIC (Klebsiella pneumoniae): > 128 µg/mL
MIC (Clostridioides difficile [12]): 0.03 µg/mL (≈ 0.0284 µM)
MIC (Bifidobacterium longum): < 0.01 µg/mL
MIC (Enterococcus faecium [15]): > 16 µg/mL
MIC (Clostridioides difficile [17]): 0.125 µg/mL (≈ 0.118 µM)
MIC (Clostridioides difficile [18]): 0.5 µg/mL (≈ 0.473 µM)
MIC [20]: 16 µg/mL (≈ 15.1 µM)
MIC (Clostridioides difficile [21]): 0.25 µg/mL (≈ 0.236 µM)
MIC (Clostridioides difficile [22]): 0.01 µg/mL (≈ 0.00945 µM)
MIC (Enterococcus faecium [23]): > 16 µg/mL
MIC (Bacteroides fragilis): > 32 µg/mL
MIC (Acinetobacter baumannii): > 128 µg/mL
MIC (Clostridioides difficile [24]): 0.06 µg/mL (≈ 0.0567 µM)
MIC (Fusobacterium nucleatum): < 0.06 µg/mL
MIC (Lactobacillus gasseri): 2 µg/mL (≈ 1.89 µM)
MIC (Veillonella): 8 µg/mL (≈ 7.56 µM)
MIC (Clostridioides difficile [25]): 0.01 µg/mL (≈ 0.00945 µM)
MIC (Klebsiella aerogenes): > 128 µg/mL
MIC [26]: > 32 µg/mL
MIC (Escherichia coli): > 128 µg/mL
MIC (Clostridioides difficile [27]): 4 µg/mL (≈ 3.78 µM)
